# Data reported in US11382888B2, “Combination of topical medications for the treatment of skin diseases and methods of use” (American University of Beirut, priority 2019, dated 2022).
# Assays:
# [1] = general statement, no test described; cited from earlier work
# patients with ARCI = assay: Left sided vs right sided trial of the lovastatin-cholesterol combination cream in ARCI patients; assay type: in vivo, human; parameters: Erythema / Total score: scale not given here; settings: left side glycolic acid only, right side also combination cream
# Description: Each patient was given a severity score based on 5 criteria: (1) skin thickness and/or scaling; (2) pain, pruritus, and/or discomfort; (3) erythema; (4) impact of the condition on the ability to perform daily functions; and (5) the patient's subjective severity scoring, i.e., the patient's own assessment of the severity of the condition.
# Five patients applied the combination cream of lovastatin and cholesterol on the right side of the body only, while the glycolic acid was applied to both sides (patients 1, 2, 3, 4, and 6).
compound,measurement,setting,value
"CC(=O)N1CCN(c2ccc(OCC3COC(Cn4ccnc4)(c4ccc(Cl)cc4Cl)O3)cc2)CC1 (racemic) [Ketoconazole, 1-acetyl-4-[4-[[2-(2,4-dichlorophenyl)-2-[(1H-imidazol-1-yl)-methyl]-1,3-dioxolan-4-yl]methoxy]phenyl]piperazine]",solubility,[1],low solubility
"O=C(O)CO [glycolic acid, hydroxyacetic acid]",% change,"patients with ARCI; patient 1, at 2 months vs baseline total score",−5.4545%
same,Ability to perform daily functions,"patients with ARCI; patient 1, at 2 months",5
same,Erythema,"patients with ARCI; patient 1, at 2 months",9
same,Pain/pruritis/discharge,"patients with ARCI; patient 1, at 2 months",6
same,Patient severity scoring,"patients with ARCI; patient 1, at 2 months",17
same,Response,"patients with ARCI; patient 1, at 2 months",Mild
same,Skin thickness/scaling,"patients with ARCI; patient 1, at 2 months",15
same,Total score,"patients with ARCI; patient 1, at 2 months",52
same,% change,"patients with ARCI; patient 1, at 3 months vs baseline total score",−54.545%
same,Ability to perform daily functions/to move,"patients with ARCI; patient 1, at 3 months",2
same,Erythema,"patients with ARCI; patient 1, at 3 months",4
same,Pain/pruritis/discharge,"patients with ARCI; patient 1, at 3 months",2
same,Patient severity scoring,"patients with ARCI; patient 1, at 3 months",8
same,Skin thickness/scaling,"patients with ARCI; patient 1, at 3 months",9
same,Total score,"patients with ARCI; patient 1, at 3 months",25
same,% change,"patients with ARCI; patient 2, at 2 months vs baseline total score",−12%
same,Ability to perform daily functions,"patients with ARCI; patient 2, at 2 months",5
same,Erythema,"patients with ARCI; patient 2, at 2 months",6
same,Pain/pruritis/discharge,"patients with ARCI; patient 2, at 2 months",6
same,Patient severity scoring,"patients with ARCI; patient 2, at 2 months",17
same,Response,"patients with ARCI; patient 2, at 2 months",Mild
same,Skin thickness/scaling,"patients with ARCI; patient 2, at 2 months",10
same,Total score,"patients with ARCI; patient 2, at 2 months",44
same,% change,"patients with ARCI; patient 2, at 3 months vs baseline total score",−58%
same,Ability to perform daily functions/to move,"patients with ARCI; patient 2, at 3 months",2
same,Erythema,"patients with ARCI; patient 2, at 3 months",4
same,Pain/pruritis/discharge,"patients with ARCI; patient 2, at 3 months",4
same,Patient severity scoring,"patients with ARCI; patient 2, at 3 months",5
same,Skin thickness/scaling,"patients with ARCI; patient 2, at 3 months",6
same,Total score,"patients with ARCI; patient 2, at 3 months",21
same,% change,"patients with ARCI; patient 3, at 2 months vs baseline total score",−3.7037%
same,Ability to perform daily functions,"patients with ARCI; patient 3, at 2 months",3
same,Erythema,"patients with ARCI; patient 3, at 2 months",3
same,Pain/pruritis/discharge,"patients with ARCI; patient 3, at 2 months",3
same,Patient severity scoring,"patients with ARCI; patient 3, at 2 months",10
same,Response,"patients with ARCI; patient 3, at 2 months",Mild
same,Skin thickness/scaling,"patients with ARCI; patient 3, at 2 months",7
same,Total score,"patients with ARCI; patient 3, at 2 months",26
same,% change,"patients with ARCI; patient 3, at 3 months vs baseline total score",−40.7407%
same,Ability to perform daily functions/to move,"patients with ARCI; patient 3, at 3 months",1
same,Erythema,"patients with ARCI; patient 3, at 3 months",2
same,Pain/pruritis/discharge,"patients with ARCI; patient 3, at 3 months",2
same,Patient severity scoring,"patients with ARCI; patient 3, at 3 months",7
same,Response,"patients with ARCI; patient 3, at 3 months",Good
same,Skin thickness/scaling,"patients with ARCI; patient 3, at 3 months",4
same,Total score,"patients with ARCI; patient 3, at 3 months",16
same,% change,"patients with ARCI; patient 4, at 2 months vs baseline total score",−41.818%
same,Ability to perform daily functions,"patients with ARCI; patient 4, at 2 months",3
same,Erythema,"patients with ARCI; patient 4, at 2 months",9
same,Pain/pruritis/discharge,"patients with ARCI; patient 4, at 2 months",4
same,Patient severity scoring,"patients with ARCI; patient 4, at 2 months",8
same,Response,"patients with ARCI; patient 4, at 2 months",Good
same,Skin thickness/scaling,"patients with ARCI; patient 4, at 2 months",8
same,Total score,"patients with ARCI; patient 4, at 2 months",32
same,% change,"patients with ARCI; patient 4, at 3 months vs baseline total score",−65.455%
same,Ability to perform daily functions/to move,"patients with ARCI; patient 4, at 3 months",2
same,Erythema,"patients with ARCI; patient 4, at 3 months",4
same,Pain/pruritis/discharge,"patients with ARCI; patient 4, at 3 months",2
same,Patient severity scoring,"patients with ARCI; patient 4, at 3 months",5
same,Skin thickness/scaling,"patients with ARCI; patient 4, at 3 months",6
same,Total score,"patients with ARCI; patient 4, at 3 months",19
same,% change,"patients with ARCI; patient 6, at 2 months vs baseline total score",−7.353%
same,Ability to perform daily functions,"patients with ARCI; patient 6, at 2 months",10
same,Erythema,"patients with ARCI; patient 6, at 2 months",13
same,Pain/pruritis/discharge,"patients with ARCI; patient 6, at 2 months",8
same,Patient severity scoring,"patients with ARCI; patient 6, at 2 months",17
same,Response,"patients with ARCI; patient 6, at 2 months",Mild
same,Skin thickness/scaling,"patients with ARCI; patient 6, at 2 months",15
same,Total score,"patients with ARCI; patient 6, at 2 months",63
same,% change,"patients with ARCI; patient 6, at 3 months vs baseline total score",−10.2941%
same,Ability to perform daily functions/to move,"patients with ARCI; patient 6, at 3 months",10
same,Erythema,"patients with ARCI; patient 6, at 3 months",13
same,Pain/pruritis/discharge,"patients with ARCI; patient 6, at 3 months",7
same,Patient severity scoring,"patients with ARCI; patient 6, at 3 months",17
same,Response,"patients with ARCI; patient 6, at 3 months",Mild
same,Skin thickness/scaling,"patients with ARCI; patient 6, at 3 months",14
same,Total score,"patients with ARCI; patient 6, at 3 months",61
